Columns and labels:
[1] = target: T1, Aldehyde dehydrogenase 1A1 (Homo sapiens) (UniProt P00352); experiment: Inhibition of full length recombinant human ALDH1A1 expressed in Escherichia coli BL21(DE3) assessed as remaining dehydrogenase activity by measuring NAD(P)H level at 10 uM preincubated for 2 mins followed by addition of propionaldehyde as substrate in presence of NAD+ by spectrophotometric method
T1 sequence (whole entry): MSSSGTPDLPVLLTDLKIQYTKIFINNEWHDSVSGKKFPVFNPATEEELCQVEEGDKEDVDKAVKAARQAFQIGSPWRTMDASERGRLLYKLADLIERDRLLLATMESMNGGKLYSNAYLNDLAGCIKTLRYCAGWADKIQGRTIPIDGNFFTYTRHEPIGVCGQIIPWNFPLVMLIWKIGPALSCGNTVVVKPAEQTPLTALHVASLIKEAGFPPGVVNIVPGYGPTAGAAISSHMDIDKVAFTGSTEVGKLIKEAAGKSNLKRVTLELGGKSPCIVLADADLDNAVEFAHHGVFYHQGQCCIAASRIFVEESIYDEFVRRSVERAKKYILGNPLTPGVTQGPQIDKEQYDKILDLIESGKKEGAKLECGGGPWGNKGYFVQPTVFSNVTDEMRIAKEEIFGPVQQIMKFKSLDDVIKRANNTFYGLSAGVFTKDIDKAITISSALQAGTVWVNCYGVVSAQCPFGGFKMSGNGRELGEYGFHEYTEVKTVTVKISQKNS

[2] = target: T2, Aldehyde dehydrogenase, dimeric NADP-preferring (Homo sapiens) (UniProt P30838); experiment: Inhibition of full length recombinant human ALDH3A1 expressed in Escherichia coli BL21(DE3) assessed as remaining dehydrogenase activity by measuring NAD(P)H level at 10 uM preincubated for 2 mins followed by addition of propionaldehyde as substrate in presence of NAD+ by spectrophotometric method
T2 sequence (whole entry): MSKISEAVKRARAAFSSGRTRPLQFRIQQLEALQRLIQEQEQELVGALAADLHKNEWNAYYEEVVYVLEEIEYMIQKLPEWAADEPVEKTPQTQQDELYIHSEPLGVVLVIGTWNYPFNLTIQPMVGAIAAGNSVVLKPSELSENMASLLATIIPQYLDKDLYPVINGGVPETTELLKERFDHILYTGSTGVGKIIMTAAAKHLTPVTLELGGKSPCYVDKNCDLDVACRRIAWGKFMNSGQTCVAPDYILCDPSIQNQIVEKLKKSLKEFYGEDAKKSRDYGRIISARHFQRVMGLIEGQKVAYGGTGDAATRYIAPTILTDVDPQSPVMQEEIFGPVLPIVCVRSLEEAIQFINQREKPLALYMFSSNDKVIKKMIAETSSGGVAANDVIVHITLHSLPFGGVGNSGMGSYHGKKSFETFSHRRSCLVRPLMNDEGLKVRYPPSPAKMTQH

[3] = Lipophilicity, log P of the compound; assay type: physicochemical; details: octanol/water
[4] = target: T3, Aldehyde dehydrogenase, mitochondrial (Homo sapiens) (UniProt P05091); experiment: Inhibition of full length recombinant human ALDH2 expressed in Escherichia coli assessed as remaining dehydrogenase activity by measuring NAD(P)H level at 10 uM preincubated for 2 mins followed by addition of propionaldehyde as substrate in presence of NAD+ by spectrophotometric method
T3 sequence (whole entry): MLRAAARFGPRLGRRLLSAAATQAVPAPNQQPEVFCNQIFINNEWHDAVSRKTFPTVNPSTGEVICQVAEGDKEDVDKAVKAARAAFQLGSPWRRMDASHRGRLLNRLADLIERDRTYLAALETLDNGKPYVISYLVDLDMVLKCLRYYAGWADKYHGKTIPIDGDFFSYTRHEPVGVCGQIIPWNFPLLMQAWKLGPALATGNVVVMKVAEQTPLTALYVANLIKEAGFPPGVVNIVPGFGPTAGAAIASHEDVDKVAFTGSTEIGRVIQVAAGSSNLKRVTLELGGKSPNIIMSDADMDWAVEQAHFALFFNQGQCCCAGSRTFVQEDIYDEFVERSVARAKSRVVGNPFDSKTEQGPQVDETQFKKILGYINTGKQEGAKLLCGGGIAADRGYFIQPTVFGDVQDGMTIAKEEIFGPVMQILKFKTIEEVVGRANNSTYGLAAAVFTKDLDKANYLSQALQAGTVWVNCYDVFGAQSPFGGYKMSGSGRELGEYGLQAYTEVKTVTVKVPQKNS

[5] = target: T4, Aldehyde dehydrogenase 1A1 (Homo sapiens, UniProt P00352)
T4 sequence (P00352 whole entry): T1 sequence (whole entry)
Description: Inhibition of full length recombinant human ALDH1A1 expressed in Escherichia coli BL21(DE3) assessed as reduction in dehydrogenase activity by measuring NAD(P)H level preincubated for 2 mins followed by addition of propionaldehyde as substrate in presence of NAD+ by spectrophotometric method

[6] = target: T5, Aldehyde dehydrogenase, mitochondrial (Homo sapiens, UniProt P05091)
T5 sequence (P05091 whole entry): T3 sequence (whole entry)
Description: Inhibition of full length recombinant human ALDH2 expressed in Escherichia coli assessed as reduction in dehydrogenase activity by measuring NAD(P)H level preincubated for 2 mins followed by addition of propionaldehyde as substrate in presence of NAD+ by spectrophotometric method

[7] = target: T6, Aldehyde dehydrogenase, dimeric NADP-preferring (Homo sapiens, UniProt P30838); experiment: Inhibition of full length recombinant human ALDH3A1 expressed in Escherichia coli BL21(DE3) assessed as reduction in dehydrogenase activity by measuring NAD(P)H level preincubated for 2 mins followed by addition of benzaldehyde as substrate in presence of NADP+ by spectrophotometric method
T6 sequence (P30838 whole entry): T2 sequence (whole entry)

| SMILES | Activity [1] [%] | Activity [2] [%] | logP [3] | Activity [4] [%] | IC50 [5] | IC50 [6] [nM] | IC50 [7] |
| --- | --- | --- | --- | --- | --- | --- | --- |
| CC(=O)COc1ccc2c(C)cc(=O)oc2c1 | 52.2 | 64.1 | 1.37 | 99.1 | – | – | – |
| Cc1oc2c(C)c3oc(=O)c(C)c(C)c3cc2c1C | 78.4 | 102 | 4.36 | 87.2 | – | – | – |
| Cc1c(C)c2cc3c4c(oc3cc2oc1=O)CCCC4 | 64.3 | 96.1 | 4.48 | 61.3 | – | – | – |
| Cc1oc2cc3oc(=O)c4ccccc4c3cc2c1C | 82.4 | 93.4 | 3.89 | 42.2 | Not Active | 150 | Not Active |
| Cc1cc(=O)oc2cc(OCC(N)=O)ccc12 | 28.5 | 67.1 | 1.71 | 89.5 | – | – | – |
| CC(=O)C(C)Oc1ccc2c(C)cc(=O)oc2c1 (stereo not drawn) | 68.7 | 101 | 1.72 | 94.4 | – | – | – |
| C=CCOc1ccc2c(C)cc(=O)oc2c1 | 35.5 | 9.46 | 3.01 | 94.6 | – | – | – |
| Cc1coc2cc3oc(=O)c(Cc4ccccc4)c(C)c3cc12 | 58.5 | 90.3 | 4.98 | 83.6 | – | – | – |
| Cc1cc2oc(=O)cc(C)c2cc1NC(=O)C(C)C | 59.8 | 105 | 2.05 | 96.3 | – | – | – |
| Cc1oc2cc3oc(=O)c(CCC(=O)NCc4ccccc4)c(C)c3cc2c1C | 93.6 | 68.3 | 4.52 | 69.8 | – | – | – |
| CC(C)=CCOc1ccc2c(C)cc(=O)oc2c1 | 37.3 | 23.7 | 3.94 | 93.3 | – | – | – |
| Cc1cc(=O)oc2cc(OC(C)C(=O)O)ccc12 (stereo not drawn) | 97.5 | 93.9 | 1.63 | 99.3 | – | – | – |
| Cc1c(C)c2c(cc(C)c3c(C)coc32)oc1=O | 71.5 | 98.1 | 3.92 | 46.4 | Not Active | 150 | Not Active |
| Cc1oc2cc3oc(=O)cc(Cc4ccccc4)c3cc2c1C | 57 | 81.6 | 4.8 | 73.7 | – | – | – |
| Cc1cc(=O)oc2cc(OCC(=O)Nc3ccccc3)ccc12 | 49.6 | 95.5 | 2.85 | 95 | – | – | – |
| CC(=O)C(C)Oc1ccc2c(c1)oc(=O)c1ccccc12 (stereo not drawn) | 58.7 | 103 | 2.64 | 64.4 | – | – | – |
| Cc1c(CCC(=O)O)c(=O)oc2cc(O)ccc12 | 96.6 | 105 | 1.82 | 101 | – | – | – |
| CC(=O)C(C)Oc1ccc2ccc(=O)oc2c1 (stereo not drawn) | 91.4 | 106 | 1.4 | 93.3 | – | – | – |
| Cc1c(C)c2cc3c(-c4ccccc4)coc3cc2oc1=O | 87.4 | 88.9 | 4.8 | 92.8 | – | – | – |
| COc1ccc2c(C)cc(=O)oc2c1 [HYMECROMONE METHYL ETHER] | 80.2 | 36.4 | 2.46 | 94.8 | – | – | – |
| Cc1c(C)c2cc3c(C(C)(C)C)coc3cc2oc1=O | 94.5 | 87 | 3.94 | 69.7 | – | – | – |
| Cc1cc(=O)oc2cc(OCC(=O)c3ccccc3)ccc12 | 29 | 67.1 | 3.19 | 97.8 | – | – | – |
| Cc1c(C)c2cc3c(=O)ccoc3c(C)c2oc1=O | 67.4 | 79.2 | 2.1 | 80.2 | – | – | – |
